Test results: patent publication US12491188B2, “Small molecule PARG inhibitors and methods of use thereof” (Board of Regents, The University of Texas System, priority 2019, dated 2025)

Tests used:
[1] = system: MDA-MB-231 control and PARG-KD cells; experiment: Western blot of cellular PARylation (anti-PAR); assay type: cell-based, human
Experimental: Thus, dose-dependent JA2131-induced cellular PARylation with and without IR was investigated. For combined IR treatment, MDA-MB-231 cells were treated with JA2131 for 2 h, followed by 7 Gy X-ray and then allowed to recover for an hour before cellular extraction and Western blotting analysis.
Using shRNA, next, a stable MDA-MB-231 PARG knockdown (PARG-KD) cell-line was generated (FIG. 23). Comparison of PARGi JA2131-induced PARylation in PARG-KD and control cells was performed. It was reasoned that PARG-KD cells would show a reduced response to a selective PARGi as the stable PARG-KD cells would have to adopt a PARG-independent survival mechanism. MDA-MB-231 control cells and PARG-KD cells were treated with JA2131 then total cell lysates were subjected to immunoblotting with anti-PAR antibody, followed by immunodetection for anti-PARG, PARP1 and actin antibody (FIG. 22b). Untreated PARG-KD cells show a higher baseline level of PARylation than the control cells. […] Dose-response curves comparing control and PARG-KD cells further validate the selective action of JA2131 on control cells expressing PARG, but not on the PARG-KD cells (FIG. 25).
Antibodies and western blots. Cells were grown in 6-well plates and 10 cm dishes, treated with PARGi for 2 hours, irradiated and recovered for 1 hour before harvesting. Cells were irradiated, ranging from 1 to 10 Gy using RAD SOURCE, RS-2000, Biological System, RadSource.com. Cells were washed with phosphate buffer and saline (PBS) and lysed with buffer containing 50 mM Hepes, pH 7.5, 1% (v/v) igepal-C630, 1 mg/ml bacitracin, 1 mM EDTA, 10 mM NaF, 1 mM sodium orthovanadate, 10% (v/v) glycerol, 50 mM NaCl, 1 mM PMSF, and Protease Inhibitor Cocktail Set III (EMD Millipore). The detergent-soluble fraction was used for Western blotting. Cell fractionation was carried out using the Subcellular Protein Fractionation Kit (#78840, ThermoFisher) according to the manufacturer's instruction. Primary antibodies were purchased from the following sources; Actin, γH2AX and Histone-H3 was from Cell Signaling Technology. H2AX and LAMB1 were from Invitrogen/ThermoFisher. PCNA and p53 were from Santa Cruz biotechnology. Anti-PAR (10H) was from EMD Millipore, anti-PARG was from Cell Signaling Technology, and Anti-PARP1 was from ABCAM. Secondary antibodies were conjugated HRP (Cell Signaling) and ECL Clarity was purchased from Bio-Rad. All primary and secondary antibodies were diluted 1:1000 with 5% non-fat Blotting Grade Blocking Reagent in 1× TBST, except for anti-PAR 1:500.

[2] = system: PC3 cells; experiment: PAR / γH2AX immuno-staining and high content imaging after IR; assay type: cell-based, human; conditions: PC3, 2 h treatment, 7 Gy, 1 h recovery
Experimental: FIGS. 13a-g show PARGi sensitizes cells to ionizing radiation damage. (FIG. 13a) A low-resolution fixed intensity image-montage of the total cell numbers 3×(3×3) imaged per experimental group. A high level of PAR accumulation and γH2AX foci formation in cells exposed to PARGi. PC3 cells treated DMSO or PARG inhibitors (2120 or 2131) for 2 hours, irradiated 7Gy, recovered for 1 hour were fixed and immuno-stained with Poly(ADP)-Ribose (PAR, green), γH2AX (red) and Hoechst (blue) antibodies. Cells were analyzed with quantitative high content imaging. (FIGS. 13b-e) Quantitative analysis of PAR intensity (FIG. 13b), γH2AX intensities (FIG. 13c), the number of cells showing PAR/γH2AX co-localizations (FIG. 13d) and nucleus count for the total number of cells analyzed for each group (FIG. 13e). […] Cells were treated with 2131 for an hour followed by 7Gy ionizing radiation then allowed to recover for 2 h before total cell-lysate preparation and immunoblotting with anti-PAR (upper panel) followed by anti-PARG (middle) and Anti-PCNA (lower) as controls. […] Anti-PAR (green), Anti-γH2AX (red) and Hoechst 33342 (blue). Scale bar 25 μm.
Immuno-staining and imaging. PC3 cells were grown to 75% confluence in 24-well 25 μm film bottom Eppendorf black cell Imaging plates (0030741005), treated with either DMSO or designated inhibitors for 2 hours, irradiated 7 Gy X-ray and allowed to recover for an hour before fixing with 4% (wt/vol) paraformaldehyde, pH 8.0. All subsequent steps were performed at pH8.0. Cells were washed 6-7 times with PBS, permeabilized 0.5% Triton X-100 in PBS on ice for 20 min, blocked overnight with PBS/5% Goat serum/3% BSA/0.5% Triton X-100. Cells were incubated with primary antibody 1:250 dilution in PBS/5% BSA/0.5% Triton X-100 overnight at 4° C. Following 6× wash with PBS pH 8.0, cells were exposed to fluorescence labelled secondary antibody diluted 1:500 in PBS/5% BSA/0.5% Triton X-100 for 1 hour at room temperature. Following 6-7× PBS washes, cells were fixed again with 4% PFA at room temperature for 20 min. […]

[3] = system: HeLa cells; experiment: DNA fiber assay, replication fork progression; assay type: cell-based; conditions: 10 μM, 2 hrs pretreatment
Experimental: DNA fiber assay. DNA fiber assay was conducted as described previously (Castillo et al. 2014). Briefly, cells pretreated with JA2131 (10 μM) or DMSO for 2 hrs were labeled with 100 μM CldU for 30 min and exposed to 250 μM IdU (with or without 0.4 mM hydroxyurea treatment) for another 30 min or 3 hrs. After labeling and treatment, cells were lysed and DNA fibers stretched onto glass slides. Immunofluorescence was carried out using α-IdU/α-BrdU (BD Biosciences) and α-CldU/α-BrdU (Abcam) and secondary antibodies, including Alexa Fluor 488 (green) and Alexa Fluor 555 (Invitrogen). Images were taken using a Nikon 80 microscope and analyzed using ImageJ software. Statistics were calculated using Prism software. 5-Chloro-2′-deoxyuridine (CIdU) and 5-Iodo-2′-deoxyuridine (IdU) were from Sigma.

[4] = system: MRC-5 cells; conditions: SRB
Experimental: Sulforhodamine B (SRB) Cytotoxicity Assay. […] Colorimetric or fluorescence analysis was performed in a FlexStation 3, using SoftMax Pro 7.0, Molecular Devices. Normalized graphs were generated with Prism 8 software, non-linear 4-parameter data fitting was performed for IC50 calculation.

O=C1C(Cl)=C(Cl)C(Cl)(Cl)C(Cl)=C1Cl [JA2131]
cellular PARylation, PARGi combined with IR ([1]; MDA-MB-231, 100 nM, 2 h, 7 Gy X-ray, 1 h recovery): massive increase in cellular PARylation | cellular PARylation, PARGi alone ([1]; MDA-MB-231, without IR, 1 to 5 μM doses): dose-dependent increase in cellular PARylation | PAR accumulation in PARG-KD cells ([1]; MDA-MB-231 PARG knockdown cells): did not affect the level of PAR accumulation | PAR accumulation in control cells expressing PARG ([1]; MDA-MB-231 control cells): measurable increase in PAR | cells showing colocalization of PAR and γH2AX foci [2]: at least 50% | increase in PAR accumulation following IR in comparison to untreated cells [2]: 20 fold | γH2AX staining and foci formation, PARGi-treated vs control cells [2]: > 10 fold | average IdU tract ([3]; absence of genotoxic stress): 6.0 μm | average IdU tract length ([3]; low dose of hydroxyurea): 5.0 μm | cytotoxic dose in MRC-5 cells relative to MDA-MB-231 cells [4]: an order of magnitude higher
